# According to patent US10919916B2, “Boron-containing small molecules” (Bill & Melinda Gates Foundation, priority 2016, dated 2021):
# Counter-ions that a name gives are not always drawn. Like-named read-outs stand apart in the source and are kept apart here.
# Tests used:
# Type in all cases: cell-based
# [1] = tested on: Wolbachia pipientis in C6/36 cell line; experiment: Anti-Wolbachia high-content assay; conditions: C6/36 (wAlbB) cells, 7 days at 26° C., 50% reduction of Wolbachia, read-out: EC50 Wolbachia pipientis in C6/36 cell line
# Protocol: After 15 minutes, all media was removed from each well and fresh media (no stain) was added. Imaging of each well was accomplished using a Perkin Elmer Operetta high-content imaging system. Five fields per well were imaged using a confocal 60× objective with the Fluorescein filter (excitation filter: 460-490 nm; emission filter: 500-550 nm). Images were analyzed using the Perkin Elmer Harmony software to score each intact cell on the basis of texture complexity of the cytoplasm. Full details can be found in: […]. et al, J. Biomol.
# [2] = tested on: Streptococcus pneumoniae (ATCC 49619); experiment: Antibacterial MIC assay (microbroth dilution, CLSI)
# Outline: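 S. pneumoniae at 5×10^5 CFU/mL (from 0.5 McFarland saline suspension) was tested against 2-fold serial compound dilutions in cation-adjusted Mueller-Hinton broth plus 3% lysed horse blood, per CLSI M07-A10/M100-S25 microdilution guidelines.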
# [3] = tested on: Staphylococcus aureus, MRSA (ATCC 33591); experiment: as above; conditions: read-out: MIC Staphylococcus aureus, MRSA (ATCC 33591)
# Outline: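 Compound 2-fold dilution series tested against 5×10^5 CFU/mL bacteria prepared from 0.5 McFarland saline suspensions of overnight colonies. Medium was cation-adjusted Mueller-Hinton broth, supplemented with 3% lysed horse blood for the fastidious pneumococcus. Protocol followed CLSI M07-A10 and M100-S25.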
# [4] = ATCC49619, microbroth dilution, 3% lysed horse blood, 35° C. for 16-20 hours, read-out: MIC Streptococcus pneumoniae (ATCC 49619)
# [5] = microbroth dilution, cation-adjusted Mueller-Hinton broth, 35° C. for 16-20 hours
# [6] = ATCC49619, read-out: MIC Streptococcus pneumoniae (ATCC 49619)
SMILES,EC50 [1],"MIC [2, 4]","MIC [3, 5]","MIC [2, 6]",MIC [3]
"C=C[C@]1(C)C[C@@H](OC(=O)COc2ccc3c(c2)B(O)OC3CN(C)C)[C@]2(C)[C@H](C)CC[C@]3(CCC(=O)[C@H]32)[C@@H](C)[C@@H]1O (stereo partly drawn) [Compound 27, (3aR,4R,5R,7S,8S,9R,9aS,12R)-8-hydroxy-4,7,9,12-tetramethyl-3-oxo-7-vinyldecahydro-4,9a-propanocyclopenta[8]annulen-5-yl 2-((3-((dimethylamino)methyl)-1-hydroxy-1,3-dihydrobenzo[c][1,2]oxaborol-6-yl)oxy)acetate]",27 nM,< 0.25 µg/mL,< 0.25 µg/mL,–,–
"C=C[C@]1(C)C[C@@H](OC(=O)CNc2cnc3c(c2)B(O)OC3)[C@]2(C)[C@H](C)CC[C@]3(CCC(=O)[C@H]32)[C@@H](C)[C@@H]1O [Compound 102, (3aR,4R,5R,7S,8S,9R,9aS,12R)-8-hydroxy-4,7,9,12-tetramethyl-3-oxo-7-vinyldecahydro-4,9a-propanocyclopenta[8]annulen-5-yl (1-hydroxy-1,3-dihydro-[1,2]oxaborolo[4,3-b]pyridin-6-yl)glycinate]",> 1000 nM,> 64 µg/mL,> 64 µg/mL,–,–
"C=C[C@]1(C)C[C@@H](OC(=O)COc2ccc3c(c2)B(O)N(C(C)=O)N=C3)[C@]2(C)[C@H](C)CC[C@]3(C[C@H](F)C(=O)[C@H]32)[C@@H](C)[C@@H]1O [Compound 88, (2S,3aR,4R,5R,7S,8S,9R,9aS,12R)-2-fluoro-8-hydroxy-4,7,9,12-tetramethyl-3-oxo-7-vinyldecahydro-4,9a-propanocyclopenta[8]annulen-5-yl 2-((2-acetyl-1-hydroxy-1,2-dihydrobenzo[d][1,2,3]diazaborinin-7-yl)oxy)acetate]",4 nM,0.5 to 2 µg/mL,< 0.25 µg/mL,–,–
"C=C[C@]1(C)C[C@@H](OC(=O)COc2ccc3c(c2)B(O)N(C(=O)OC)N=C3)[C@]2(C)[C@H](C)CC[C@]3(C[C@H](F)C(=O)[C@H]32)[C@@H](C)[C@@H]1O [Compound 92, Methyl 7-(2-(((2S,3aR,4R,5R,7S,8S,9R,9aS,12R)-2-fluoro-8-hydroxy-4,7,9,12-tetramethyl-3-oxo-7-vinyldecahydro-4,9a-propanocyclopenta[8]annulen-5-yl)oxy)-2-oxoethoxy)-1-hydroxybenzo[d][1,2,3]diazaborinine-2(1H)-carboxylate]",3 nM,0.5 to 2 µg/mL,< 0.25 µg/mL,–,–
"C=C[C@]1(C)C[C@@H](OC(=O)COc2cc3c(c(C4CCNCC4)c2)COB3O)[C@]2(C)[C@H](C)CC[C@]3(CCC(=O)[C@H]32)[C@@H](C)[C@@H]1O [Compound 18, (3aR,4R,5R,7S,8S,9R,9aS,12R)-8-hydroxy-4,7,9,12-tetramethyl-3-oxo-7-vinyldecahydro-4,9a-propanocyclopenta[8]annulen-5-yl 2-((1-hydroxy-4-(piperidin-4-yl)-1,3-dihydrobenzo[c][1,2]oxaborol-6-yl)oxy)acetate]",> 1000 nM,–,0.5 to 2 µg/mL,–,–
"C=C[C@]1(C)C[C@@H](OC(=O)COc2ccc3c(c2)B(O)N(C(=O)OC(C)(C)C)N=C3)[C@]2(C)[C@H](C)CC[C@]3(C[C@H](F)C(=O)[C@H]32)[C@@H](C)[C@@H]1O [Compound 73, tert-butyl 7-(2-(((2S,3aR,4R,5R,7S,8S,9R,9aS,12R)-2-fluoro-8-hydroxy-4,7,9,12-tetramethyl-3-oxo-7-vinyldecahydro-4,9a-propanocyclopenta[8]annulen-5-yl)oxy)-2-oxoethoxy)-1-hydroxybenzo[d][1,2,3]diazaborinine-2(1H)-carboxylate]",1 nM,< 0.25 µg/mL,< 0.25 µg/mL,–,–
"C=C[C@]1(C)C[C@@H](OC(=O)COc2ccc3c(c2)B(O)N(C(C)=O)N=C3)[C@]2(C)[C@H](C)CC[C@]3(C[C@H](O)C(=O)[C@H]32)[C@@H](C)[C@@H]1O [Compound 86, (2S,3aR,4R,5R,7S,8S,9R,9aS,12R)-2,8-dihydroxy-4,7,9,12-tetramethyl-3-oxo-7-vinyldecahydro-4,9a-propanocyclopenta[8]annulen-5-yl 2-((2-acetyl-1-hydroxy-1,2-dihydrobenzo[d][1,2,3]diazaborinin-7-yl)oxy)acetate]",1 nM,0.5 to 2 µg/mL,< 0.25 µg/mL,–,–
"C=C[C@]1(C)C[C@@H](OC(=O)COc2cc3c(cn2)COB3O)[C@]2(C)[C@H](C)CC[C@]3(CCC(=O)[C@H]32)[C@@H](C)[C@@H]1O [Compound 100, (3aR,4R,5R,7S,8S,9R,9aS,12R)-8-hydroxy-4,7,9,12-tetramethyl-3-oxo-7-vinyldecahydro-4,9a-propanocyclopenta[8]annulen-5-yl 2-((1-hydroxy-1,3-dihydro-[1,2]oxaborolo[4,3-c]pyridin-6-yl)oxy)acetate]",> 1000 nM,–,> 64 µg/mL,–,–
"C=C[C@]1(C)C[C@@H](OC(=O)COc2ccc3c(c2Cl)B(O)OC3CN)[C@]2(C)[C@H](C)CC[C@]3(CCC(=O)[C@H]32)[C@@H](C)[C@@H]1O (stereo partly drawn) [Compound 31, (3aR,4R,5R,7S,8S,9R,9aS,12R)-8-hydroxy-4,7,9,12-tetramethyl-3-oxo-7-vinyldecahydro-4,9a-propanocyclopenta[8]annulen-5-yl 2-((3-(aminomethyl)-7-chloro-1-hydroxy-1,3-dihydrobenzo[c][1,2]oxaborol-6-yl)oxy)acetate Hydrochloride]",–,–,–,0.5 to 2 µg/mL,0.5 to 2 µg/mL
"C=C[C@]1(C)C[C@@H](OC(=O)CSc2ccc3c(c2)B(O)OC3)[C@]2(C)[C@H](C)CC[C@]3(CCC(=O)[C@H]32)[C@@H](C)[C@@H]1O [Compound 61, (3aR,4R,5R,7S,8S,9R,9aS,12R)-8-hydroxy-4,7,9,12-tetramethyl-3-oxo-7-vinyldecahydro-4,9a-propanocyclopenta[8]annulen-5-yl 2-((1-hydroxy-1,3-dihydrobenzo[c][1,2]oxaborol-6-yl)thio)acetate]",–,–,–,< 0.25 µg/mL,< 0.25 µg/mL
"C=C[C@]1(C)C[C@@H](OC(=O)COc2ccc3c(c2C)B(O)N(C(=O)OC)N=C3)[C@]2(C)[C@H](C)CC[C@]3(CCC(=O)[C@H]32)[C@@H](C)[C@@H]1O [Compound 94, Methyl 1-hydroxy-7-(2-(((3aR,4R,5R,7S,8S,9R,9aS,12R)-8-hydroxy-4,7,9,12-tetramethyl-3-oxo-7-vinyldecahydro-4,9a-propanocyclopenta[8]annulen-5-yl)oxy)-2-oxoethoxy)-8-methylbenzo[d][1,2,3]diazaborinine-2(1H)-carboxylate]",–,–,–,0.5 to 2 µg/mL,< 0.25 µg/mL
"C=C[C@]1(C)C[C@@H](OC(=O)COc2ccc3c(c2)B(O)N(S(C)(=O)=O)N=C3)[C@]2(C)[C@H](C)CC[C@]3(CCC(=O)[C@H]32)[C@@H](C)[C@@H]1O [Compound 75, (3aR,4R,5R,7S,8S,9R,9aS,12R)-8-hydroxy-4,7,9,12-tetramethyl-3-oxo-7-vinyldecahydro-4,9a-propanocyclopenta[8]annulen-5-yl 2-((1-hydroxy-2-(methylsulfonyl)-1,2-dihydrobenzo[d][1,2,3]diazaborinin-7-yl)oxy)acetate]",–,–,–,0.5 to 2 µg/mL,< 0.25 µg/mL
"C=C[C@]1(C)C[C@@H](OC(=O)COc2ccc3c(c2)B(O)OC3CN)[C@]2(C)[C@H](C)CC[C@]3(CCC(=O)[C@H]32)[C@@H](C)[C@@H]1O.Cl (stereo partly drawn) [Compound 21, (3aR,4R,5R,7S,8S,9R,9aS,12R)-8-hydroxy-4,7,9,12-tetramethyl-3-oxo-7-vinyldecahydro-4,9a-propanocyclopenta[8]annulen-5-yl 2-((3-(aminomethyl)-1-hydroxy-1,3-dihydrobenzo[c][1,2]oxaborol-6-yl)oxy)acetate Hydrochloride]",–,–,0.5 to 2 µg/mL,< 0.25 µg/mL,–
"C=C[C@]1(C)C[C@@H](OC(=O)COc2ccc3c(c2F)B(O)OCC3)[C@]2(C)[C@H](C)CC[C@]3(CCC(=O)[C@H]32)[C@@H](C)[C@@H]1O [Compound 68, (3aR,4R,5R,7S,8S,9R,9aS,12R)-8-hydroxy-4,7,9,12-tetramethyl-3-oxo-7-vinyldecahydro-4,9a-propanocyclopenta[8]annulen-5-yl 2-((8-fluoro-1-hydroxy-3,4-dihydro-1H-benzo[c][1,2]oxaborinin-7-yl)oxy)acetate]",–,0.5 to 2 µg/mL,< 0.25 µg/mL,–,–
"C=C[C@]1(C)C[C@@H](OC(=O)COc2ccc3c(c2F)B(O)N(C(C)=O)N=C3)[C@]2(C)[C@H](C)CC[C@]3(CCC(=O)[C@H]32)[C@@H](C)[C@@H]1O [Compound 89, (3aR,4R,5R,7S,8S,9R,9aS,12R)-8-hydroxy-4,7,9,12-tetramethyl-3-oxo-7-vinyldecahydro-4,9a-propanocyclopenta[8]annulen-5-yl 2-((2-acetyl-8-fluoro-1-hydroxy-1,2-dihydrobenzo[d][1,2,3]diazaborinin-7-yl)oxy)acetate]",–,–,–,< 0.25 µg/mL,< 0.25 µg/mL
